Where two headings read alike, the source gives them in different places.

Assay [1] has as its target human RORγt ligand binding domain (RORγt LBD) (Homo sapiens (Human), UniProt P51449). Briefly: RORγt ThermoFluor® assay (thermal shift binding). Particulars: read-out: ThermoFluor® Assay, Kd. Summed up:
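Thermal shift with 0.065 mg/mL RORγt LBD and 60 μM 1,8-ANS in 100 mM Hepes pH 7.0, 10 mM NaCl, 2.5 mM GSH, 0.002% Tween-20.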
Background: DSF heats the sample and reads unfolding from a dye or from intrinsic fluorescence.

A further assay addresses full-length human RORγt (Homo sapiens (Human), UniProt P51449). Description: RORγt (full-length human) reporter assay, conditions A or B, HEK293T cells. In kind it is cell-based. Particulars: for inhibition at 2 µM: 2 μM compound concentration; for IC50: RORγt (FL) Reporter Assay A or B, IC50, HEK293T cells; for inhibition at 3 µM: 3 μM compound concentration (footnote *); for inhibition at 0.67 µM: 0.67 μM compound concentration (footnote ****). Summed up:
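Dual-luciferase read-out was taken after an overnight (16–20 h) compound exposure. Firefly data were scaled between DMSO-only and saturating reference compound, Renilla-normalized, then plotted against concentration for IC50.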
(In general: Reporter assays use an easily measured gene product as a stand-in for the process of interest.)

[2] abbreviates: HEK-293T, read-out: RORγt (FL) Reporter Assay A or B, % inhibition.
Where [3] appears, read: HEK-293T, 0.22 μM compound concentration (footnote *******), read-out: RORγt (FL) Reporter Assay A or B, % inhibition.

Sequence of human RORγt ligand binding domain (RORγt LBD) (P51449 other isoform, or with tags, fused parts or gaps): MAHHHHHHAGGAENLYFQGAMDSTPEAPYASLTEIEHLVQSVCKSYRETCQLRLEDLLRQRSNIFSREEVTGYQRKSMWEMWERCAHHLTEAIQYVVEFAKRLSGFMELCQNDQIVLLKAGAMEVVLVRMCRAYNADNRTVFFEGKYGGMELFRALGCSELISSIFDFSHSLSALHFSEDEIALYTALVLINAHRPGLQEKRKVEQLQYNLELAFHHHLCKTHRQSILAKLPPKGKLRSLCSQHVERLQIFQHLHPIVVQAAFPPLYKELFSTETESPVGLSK
Sequence of full-length human RORγt (P51449 other isoform, or with tags, fused parts or gaps): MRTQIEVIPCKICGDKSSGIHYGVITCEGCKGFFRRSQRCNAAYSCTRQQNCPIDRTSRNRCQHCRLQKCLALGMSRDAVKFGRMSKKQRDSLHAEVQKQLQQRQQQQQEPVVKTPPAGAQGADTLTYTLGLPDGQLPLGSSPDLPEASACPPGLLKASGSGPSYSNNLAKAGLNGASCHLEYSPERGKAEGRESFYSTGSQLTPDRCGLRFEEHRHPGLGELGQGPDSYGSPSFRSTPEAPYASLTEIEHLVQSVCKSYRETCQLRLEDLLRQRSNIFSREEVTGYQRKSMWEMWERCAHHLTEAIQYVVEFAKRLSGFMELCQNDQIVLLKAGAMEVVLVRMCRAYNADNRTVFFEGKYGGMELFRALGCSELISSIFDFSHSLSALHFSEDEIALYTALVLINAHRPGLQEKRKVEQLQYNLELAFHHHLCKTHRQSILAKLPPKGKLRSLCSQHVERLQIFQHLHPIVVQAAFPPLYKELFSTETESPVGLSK

For `CC(C)(O)Cn1nc(C(=O)NC[C@H]2CC[C@H](S(C)(=O)=O)CC2)c(Cl)c1-c1ccc(CC(C)(C)C(F)(F)F)cc1OC(F)F` [Example 145, 4-Chloro-5-(2-(difluoromethoxy)-4-(3,3,3-trifluoro-2,2-dimethylpropyl)phenyl)-1-(2-hydroxy-2-methylpropyl)-N-(((1r,4r)-4-(methylsulfonyl)cyclohexyl)methyl)-1H-pyrazole-3-carboxamide], the Kd (in general, the free concentration of one partner at which half of the binding sites on the other are occupied at equilibrium, for simple one-to-one binding) in assay [1] came to 2.5 nM. For the same compound, the inhibition (as a rule, the change of the read-out against control, counted positive when it falls) at 2 µM at full-length human RORγt (setting [2]) is 105%. Besides, the 50% inhibitory concentration (IC50) (as a rule, the point on the concentration scale where inhibition reaches its midpoint) against full-length human RORγt is 13 nM.
As for `Cc1c(C(=O)NC[C@]2(O)CC[C@@H](S(C)(=O)=O)CC2)nn(CC(C)(C)O)c1-c1ccc(CC(C)(C)C(F)(F)F)cc1OC(F)F` [Example 146, 5-(2-(Difluoromethoxy)-4-(3,3,3-trifluoro-2,2-dimethylpropyl)phenyl)-1-(2-hydroxy-2-methylpropyl)-N-(((1s,4s)-1-hydroxy-4-(methylsulfonyl)cyclohexyl)methyl)-4-methyl-1H-pyrazole-3-carboxamide], the Kd in assay [1] was determined as 15 nM. In addition, on full-length human RORγt (setting [2]), the inhibition at 3 µM was found to be 106%. For the same compound, at full-length human RORγt, the IC50 was found to be 15 nM.
With `COCCn1nc(C(=O)NC[C@H]2CC[C@H](S(C)(=O)=O)CC2)c(Cl)c1-c1ccc(CC(C)(C)C(F)(F)F)cc1OC(F)F` [Example 148, 4-Chloro-5-(2-(difluoromethoxy)-4-(3,3,3-trifluoro-2,2-dimethylpropyl)phenyl)-1-(2-methoxyethyl)-N-(((1r,4r)-4-(methylsulfonyl)cyclohexyl)methyl)-1H-pyrazole-3-carboxamide], in assay [1], the equilibrium dissociation constant (Kd) stood at 0.16 nM. In addition, the inhibition at 0.67 µM at full-length human RORγt (setting [2]) stood at 91%. On full-length human RORγt, this compound returned an IC50 of 2 nM.
Take `COCCn1nc(C(=O)NC[C@]2(O)CC[C@@H](S(C)(=O)=O)CC2)c(Cl)c1-c1ccc(CC(C)(C)C(F)(F)F)cc1OC(F)F` [Example 149, 4-Chloro-5-(2-(difluoromethoxy)-4-(3,3,3-trifluoro-2,2-dimethylpropyl)phenyl)-N-(((1s,4s)-1-hydroxy-4-(methylsulfonyl)cyclohexyl)methyl)-1-(2-methoxyethyl)-1H-pyrazole-3-carboxamide]: the Kd in assay [1] was 0.83 nM. In addition, the inhibition at 2 µM on full-length human RORγt (setting [2]) amounted to 99%. In addition, on full-length human RORγt, the IC50 is 6 nM.
Turning to `COCCn1nc(C(=O)NC[C@]2(O)CC[C@@H](S(C)(=O)=O)CC2)c(C)c1-c1ccc(CC(C)(C)C(F)(F)F)cc1OC(F)F` [Example 150, 5-(2-(Difluoromethoxy)-4-(3,3,3-trifluoro-2,2-dimethylpropyl)phenyl)-N-(((1s,4s)-1-hydroxy-4-(methylsulfonyl)cyclohexyl)methyl)-1-(2-methoxyethyl)-4-methyl-1H-pyrazole-3-carboxamide], the Kd in assay [1] was determined as 1.9 nM. The inhibition at 2 µM on full-length human RORγt (setting [2]) came out at 95%. Besides, 13 nM corresponded to half-maximal inhibition against full-length human RORγt (IC50).
Regarding `C[C@H](Cc1ccc(-c2c(Cl)c(C(=O)NC[C@H]3CC[C@H](S(C)(=O)=O)CC3)nn2C)c(OC(F)F)c1)C(F)(F)F` [Example 151, 4-Chloro-5-(2-(difluoromethoxy)-4-((R)-3,3,3-trifluoro-2-methylpropyl)phenyl)-1-methyl-N-(((1r,4R)-4-(methylsulfonyl)cyclohexyl)methyl)-1H-pyrazole-3-carboxamide], the dissociation constant Kd in assay [1] amounted to 1.6 nM. For the same compound, the inhibition at 1 µM at full-length human RORγt (setting [2]) amounted to 92%. Moreover, inhibition against full-length human RORγt was half-maximal at 23 nM (IC50).
For the compound `Cn1nc(C(=O)NC[C@]2(O)CC[C@@H](S(C)(=O)=O)CC2)c(Cl)c1-c1ccc(CC(C)(C)C(F)(F)F)cc1OC(F)F` [Example 154, 4-Chloro-5-(2-(difluoromethoxy)-4-(3,3,3-trifluoro-2,2-dimethylpropyl)phenyl)-N-(((1s,4s)-1-hydroxy-4-(methylsulfonyl)cyclohexyl)methyl)-1-methyl-1H-pyrazole-3-carboxamide], the dissociation constant (Kd) in assay [1] was 0.79 nM. Besides, on full-length human RORγt (setting [2]), the inhibition at 0.67 µM is 91%. Moreover, the IC50 on full-length human RORγt is 4.5 nM.
For `Cn1nc(C(=O)NC[C@H]2CC[C@H](S(C)(=O)=O)CC2)c(Cl)c1-c1ccc(CC(C)(C)C(F)(F)F)cc1OC(F)F` [Example 155, 4-Chloro-5-(2-(difluoromethoxy)-4-(3,3,3-trifluoro-2,2-dimethylpropyl)phenyl)-1-methyl-N-(((1r,4r)-4-(methylsulfonyl)cyclohexyl)methyl)-1H-pyrazole-3-carboxamide], the equilibrium dissociation constant (Kd) in assay [1] came out at 0.33 nM. At full-length human RORγt, this compound displayed an IC50 of 4.2 nM.
On to `CCS(=O)(=O)[C@H]1CC[C@H](CNC(=O)c2nn(C)c(-c3ccc(CC(C)(C)C(F)(F)F)cc3OC(F)F)c2Cl)CC1` [Example 156, 4-Chloro-5-(2-(difluoromethoxy)-4-(3,3,3-trifluoro-2,2-dimethylpropyl)phenyl)-N-(((1r,4r)-4-(ethylsulfonyl)cyclohexyl)methyl)-1-methyl-1H-pyrazole-3-carboxamide], for which the Kd in assay [1] was found to be 1.5 nM. For the same compound, the inhibition at […] at full-length human RORγt (HEK-293T, 0.33 μM compound concentration (footnote *****), read-out: RORγt (FL) Reporter Assay A or B, % inhibition) was 89%. Also, the IC50 against full-length human RORγt is 20 nM.
Consider `Cc1c(C(=O)NC[C@]2(O)CC[C@@H](S(C)(=O)=O)CC2)nn(C)c1-c1ccc(CC(C)(C)C(F)(F)F)cc1OC(F)F` [Example 157, 5-(2-(Difluoromethoxy)-4-(3,3,3-trifluoro-2,2-dimethylpropyl)phenyl)-N-(((1s,4s)-1-hydroxy-4-(methylsulfonyl)cyclohexyl)methyl)-1,4-dimethyl-1H-pyrazole-3-carboxamide], for which the Kd in assay [1] was 0.8 nM. In addition, at full-length human RORγt (setting [2]), the inhibition at 0.3 µM is 101%. For the same compound, the half-inhibitory concentration (IC50) on full-length human RORγt is 13 nM.
For the compound `Cn1nc(C(=O)NC[C@]2(O)CC[C@@H](S(C)(=O)=O)CC2)c(Cl)c1-c1ccc(CCCC(F)(F)F)cc1OC(F)F` [Example 158, 4-Chloro-5-(2-(difluoromethoxy)-4-(4,4,4-trifluorobutyl)phenyl)-N-(((1s,4s)-1-hydroxy-4-(methylsulfonyl)cyclohexyl)methyl)-1-methyl-1H-pyrazole-3-carboxamide], the Kd in assay [1] was 16 nM. Moreover, the inhibition at 3 µM at full-length human RORγt (setting [2]) was determined as 111%. This compound returned a concentration for half-maximal inhibition (IC50) on full-length human RORγt of 3.4 nM.
Regarding `CCn1nc(C(=O)NC[C@H]2CC[C@H](S(C)(=O)=O)CC2)c(Cl)c1-c1ccc(CC(C)(C)C(F)(F)F)cc1C(F)(F)F` [Example 162, 4-Chloro-1-ethyl-N-(((1r,4r)-4-(methylsulfonyl)cyclohexyl)methyl)-5-(4-(3,3,3-trifluoro-2,2-dimethylpropyl)-2-(trifluoromethyl)phenyl)-1H-pyrazole-3-carboxamide], the Kd in assay [1] was 0.48 nM. In addition, on full-length human RORγt (setting [3]), the inhibition at […] is 72%. Moreover, the IC50 at full-length human RORγt came to 5.9 nM.
Turning to `CCn1nc(C(=O)NC[C@]2(O)CC[C@@H](S(C)(=O)=O)CC2)c(Cl)c1-c1ccc(CC(C)(C)C(F)(F)F)cc1C(F)(F)F` [Example 163, 4-Chloro-1-ethyl-N-(((1s,4s)-1-hydroxy-4-(methylsulfonyl)cyclohexyl)methyl)-5-(4-(3,3,3-trifluoro-2,2-dimethylpropyl)-2-(trifluoromethyl)phenyl)-1H-pyrazole-3-carboxamide], the Kd in assay [1] came to 0.63 nM. The inhibition at […] on full-length human RORγt (setting [3]) turned out to be 78%. The half-inhibitory concentration (IC50) on full-length human RORγt came out at 3.3 nM.
For `CCn1nc(C(=O)NC[C@]2(O)CC[C@@H](S(C)(=O)=O)CC2)c(Cl)c1-c1ccc(CC(C)(C)C(F)(F)F)cc1Cl` [Example 164, 4-Chloro-5-(2-chloro-4-(3,3,3-trifluoro-2,2-dimethylpropyl)phenyl)-1-ethyl-N-(((1s,4s)-1-hydroxy-4-(methylsulfonyl)cyclohexyl)methyl)-1H-pyrazole-3-carboxamide], the Kd in assay [1] is 0.5 nM. The compound further displayed an IC50 against full-length human RORγt of 6.6 nM.
